The test system of assay [1] is mGluR5. The experiment in a line: Single molecule FRET (smFRET) of SNAP-mGluR5 dimers, TIRF microscopy. The assay is classed as biochemical. Conditions: 0.8 mM glutamate; absence of ligand ~0.5. Here is the method:
(§1) However, the goal was to target the native, unmodified proteins in cells, tissues or the intact organism, and this would require the affinity moiety to attach directly to the target protein, something that could impact function of the target protein. […] This notion was tested by asking whether there would be a functional impact of nanobody binding to an mGluR. For this purpose, mGluR5 was selected. mGluR5 is a Gq-coupled receptor whose activation stimulates phospholipase C to generate IP3 and trigger the release of calcium from internal stores, which could detect with the calcium indicator FLUO-4 that was loaded into the cells in its AM ester form. […] The activation of the receptor by NB-8260 could be directly detected using single molecule fluorescence resonance energy transfer (smFRET). SNAP-mGluR5 dimers labeled in HEK293 cells with a mixture of FRET donor and acceptor (green and red) BG dyes were isolated by cell lysis and immune-purified and immobilized at low density on a passivated glass surface (FIG. 6A) for total internal reflection fluorescence (TRIF) microscopy. Individual spots containing both the green and red dye (i.e. one on each subunit of the dimer) were selected for analysis and FRET levels measured: i) in the absence of ligand; ii) in 0.8 mM glutamate; iii) in the presence of a nanobody; or iv) in a combination of 0.8 mM glutamate and the nanobody. […]

For assay [2], the target named is T1, mGluR5 (Homo sapiens, UniProt P41594).
T1 construct: expressed in transfected cells; host or cells: HEK293 cells
Put plainly: Calcium waves (FLUO-4) in HEK293 cells expressing mGluR5. Particulars: HEK293 cells expressing mGluR5, FLUO-4. The assay is classed as cell-based. On the procedure:
as §1

T1 sequence (P41594 21-1212): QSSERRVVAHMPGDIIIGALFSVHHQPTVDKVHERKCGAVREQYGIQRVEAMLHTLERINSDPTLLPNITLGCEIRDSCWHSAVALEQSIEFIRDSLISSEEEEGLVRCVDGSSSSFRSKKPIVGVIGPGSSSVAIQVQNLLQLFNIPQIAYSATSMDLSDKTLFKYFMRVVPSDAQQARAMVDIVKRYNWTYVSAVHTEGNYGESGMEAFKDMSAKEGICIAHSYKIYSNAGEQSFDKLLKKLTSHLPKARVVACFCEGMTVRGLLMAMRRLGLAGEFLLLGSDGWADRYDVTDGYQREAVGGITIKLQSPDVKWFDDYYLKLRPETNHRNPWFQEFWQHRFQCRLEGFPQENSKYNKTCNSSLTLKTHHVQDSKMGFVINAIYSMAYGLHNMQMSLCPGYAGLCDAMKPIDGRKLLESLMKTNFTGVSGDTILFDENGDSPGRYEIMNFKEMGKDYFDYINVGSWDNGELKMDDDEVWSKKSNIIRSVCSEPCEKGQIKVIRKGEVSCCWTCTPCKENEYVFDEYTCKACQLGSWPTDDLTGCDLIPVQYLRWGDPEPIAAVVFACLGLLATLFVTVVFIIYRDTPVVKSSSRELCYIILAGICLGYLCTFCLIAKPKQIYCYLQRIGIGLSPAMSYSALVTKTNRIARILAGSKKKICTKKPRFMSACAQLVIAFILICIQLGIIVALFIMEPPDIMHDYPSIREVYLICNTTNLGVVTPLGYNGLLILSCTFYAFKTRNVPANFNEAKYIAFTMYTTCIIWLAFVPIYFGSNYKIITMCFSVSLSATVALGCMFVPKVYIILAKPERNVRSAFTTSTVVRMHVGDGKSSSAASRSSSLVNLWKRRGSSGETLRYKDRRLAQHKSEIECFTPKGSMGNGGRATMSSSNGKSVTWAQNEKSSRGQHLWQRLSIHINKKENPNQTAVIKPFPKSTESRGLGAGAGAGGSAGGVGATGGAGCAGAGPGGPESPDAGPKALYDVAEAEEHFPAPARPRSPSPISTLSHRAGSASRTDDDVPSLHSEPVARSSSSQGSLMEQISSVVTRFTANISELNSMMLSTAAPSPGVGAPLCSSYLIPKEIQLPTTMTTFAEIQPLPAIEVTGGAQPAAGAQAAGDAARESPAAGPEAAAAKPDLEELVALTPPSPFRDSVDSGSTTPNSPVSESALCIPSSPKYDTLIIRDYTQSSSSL

For `N[C@@H](CCC(=O)O)C(=O)O` [glutamate], the FRET level with mGluR5 [1] is approximately 0.3. Moreover, the “activation of calcium waves” value at mGluR5 [2] is “activates calcium waves”.

Source of the values: patent US20200308539A1, “AFFINITY-TAGGED PHOTOSWITCHES AND METHODS OF USE THEREOF” (The Regents of the University of California, priority 2017, published 2020).
